Data taken from patent publication US7223777B2, “Compounds for the management of aging-related and diabetic vascular complications, process for their preparation, therapeutic and cosmetic uses thereof” (Torrent Pharmaceuticals Ltd., priority 2001, dated 2007).
Values belong to the compound of their own block, whether it stands above or below them.

Key:
[1] = system: AGE derived protein cross links; settings: Vasan et al. Nature 1996; U.S. Pat. No. 5,853,703; cited from earlier work
[2] = system: diabetic retinopathy in rat model; settings: rat model (Hammes 1991, 1994; Roufail 1998); cited from earlier work
[3] = system: diabetic rats; settings: diabetic rats (Kihara 1991, Miyauchi 1996, Yagihashi 1992); cited from earlier work
[4] = system: diabetic rats; settings: cited from earlier work
[5] = system: old rats; settings: aging rats (Li et al 1996); cited from earlier work
[6] = molecular target: T1, AGE-BSA (Bos taurus, UniProt P02769); assay: In-vitro screening for AGE-breaking activity (AGE-BSA incubated with compound; ELISA / gel permeation chromatography); assay type: biochemical, bovine; settings: 10 mM compound, 37° C., 24 hours
T1 construct: Bovine serum albumin (fraction V) (BSA); from tissue; host or cells: bovine serum (fraction V); own knowledge: fraction V is the albumin fraction of plasma/serum
Protocol: Fluorescence was used as the criteria to monitor the increased AGE formation.
160 mg/ml of protein, bovine serum albumin, BSA and 1.6M glucose sugar were dissolved in phosphate buffered saline, PBS. Sodium azide was added at 0.02% concentration as a preservative. The solution was filtered asceptically through a […] filter and kept for aging at 37° C. for 16 weeks. After 16 weeks the solution was dialyzed against PBS, aliquoted and stored at −20° C.
To determine the AGE breaking activity, 10 μg/ml of the 16 weeks AGE-BSA was incubated with different concentrations of the test compounds at 37° C. for 24 hours and AGE breaking activity of the test compounds by ELISA was determined.
• 1. Different concentrations of 16 weeks AGE-BSA were coated on a microtiter plate as standard. Each concentration is coated in triplicates. • 2. The test samples were coated on microtiter plate at a concentration of 5 ng. to 20 ng per well in triplicates. • 3. The plate was incubated at 37° C. for one hour. • 4. After incubation the plate was washed with PBST (PBS with 0.05% Tween 20). • 5. Blocking with 5% skimmed milk in PBS at 37° C. for one hour was done. • 6. The plate was washed with PBST. • 7. Primary antibody against AGE-BSA was added and the plate is incubated at 37° C. for one hour. • 8. The plate was washed with PBST. • 9. Secondary antibody anti rabbit HRPO (Horse-Radish Per Oxidase) conjugate was added and the plate is incubated at 37° C. for one hour. • 10. The plate was washed with PBST. • 11. Colour development with OPD (orthophenylenediamine dihydrochloride) and hydrogen peroxide was done. • 12. OD (optical density) at (450 nm reading –620 nm reading) was measured after incubation at 37° C. for 15 minutes with Microplate ELISA Reader.
The breaker activity of the compounds were determined by the following formula:
[formula] OD450-620Control=Absorbance of 20 ng AGE-BSA after incubation at 37° C. for 24 hours without test compound. OD450-620Test=Absorbance of 20 ng AGE-BSA after incubation at 37° C. for 24 hours with required concentration of test compound.
Gel Permeation Chromatography based method was used to determine AGE breaking activities of the compounds.
Separation by Gel Permeation Chromatography (GPC) depends on differences in the size, more precisely the hydrodynamic volume, of the proteins in a sample. […] The pores of a column particle are differentially accessible to smaller particles, depending on their size. This volume of the column is called (V1). The total accessible volume (Vt) is the sum of the volume outside the particles (V0) and the volume accessible inside the particles (V1): Vt=V0+Vi Therefore, in a typical Gel Permeation Chromatography (GPC) run, high molecular weight molecules elute at a lower retention time whereas lower molecular weight molecules are retained for longer time. For the purpose of quantification, the area under the curve for the respective molecule is recorded. The same principle has been applied in the in vitro screening of the molecules of instant invention. Highly cross-linked Advanced Glycosylated Endproducts (AGE) were prepared in vitro by incubating Bovine Serum Albumin (BSA) with glucose for a period of 16 weeks. […] The reduction in the area of AGE-BSA incubated in the presence of AGE breaker as compared to that of control AGE BSA (incubated in absence of AGE breaker) gives an estimate of the AGE breaker activity of the drug. In order to check the non-specific activity of the molecule, a similar experiment was repeated with BSA as well. Methodology:
A known concentration of 16-week AGE-BSA was incubated with and without a predetermined concentration of the drug at 37° C. for 24 hours in clean transparent glass test tubes. The solution without drug served as the control and the solution containing the drug was treated as the test sample.
Gel permeation chromatography was performed on equal volumes of control AGE-BSA preparation and solution of AGE-BSA treated with drug. […]

[7] = Free radical scavenging activity on ABTS radical cation; assay type: biochemical
Protocol: This method measures the relative ability of free radical scavenging substances to scavenge the ABTS.^+ i.e. 2,2-Azino-bis-(3-ethyl benzo thiazoline-6-sulfonate) radical cation as compared to a standard amount of standard or free radical scavengers antioxidants. Incubation of ABTS with Peroxidase (metmyoglobin) and hydrogen peroxide results in the production of radical cation ABTS.^+. This species is blue-green in colour and can be detected at 730 nm. Antioxidants or free radical scavengers in the added sample that causes suppression of the color to a degree that is proportional to their concentration.
Preparation of Buffer Solutions: • a. Phosphate Citrate Buffer (pH 5.0): 48.5 ml of 0.1M citric acid with sufficient 0.2M disodium hydrogen phosphate to produce 100 ml. • b. Phosphate Buffer Saline (PBS): Dissolve 40.0 g of NaCl, 1.0 g of KCl, 1.0 g of KH2PO4 and 3.05 g of Na2HPO4 in 1 liter milli-Q water. Dilute 200 ml of above solution to 1 liter with milli-Q water (pH 7.4–7.6).
Preparation of ABTS Stock Solution (2 mM): • 1 tablet (10 mg) was dissolved in phosphate citrate buffer (pH 5.0) to give a 2 mM solution.
Preparation of Horse Radish Peroxidase Working Solution: • 0.1 mg was dissolved in 10 ml of phosphate buffer saline, 1 ml of this solution was diluted to 100 ml with PBS.
Preparation of Hydrogen Peroxide (1.08 mM) Solution: • 12 μl of Hydrogen Peroxide (30% w/v) was diluted to 100 ml with PBS.
Preparation of Drug Solutions: • 0.1 mM of stock solution of the drug was prepared which was serially diluted in PBS to get 0.05 mM, 0.025 mM and 0.0125 mM solutions.
Preparation of ABTS Radical Stock Solution: • To 2 ml of ABTS stock solution, 1 ml of horseradish Peroxidase working solution was added. • As soon as 2 ml of Hydrogen peroxide solution was added to the above solution, blue-green colour of the ABTS radicals appeared. This solution was incubated at 30° C. for 30 min in order to ensure the completion reaction. Make up the volume to 10 ml with PBS.
Preparation of Control Solution: • 900 μl of ABTS radical stock solution were added to an eppendorf tube. To it were added 100 μl of PBS solution.
Preparation of Test Solution: • 900 μl of ABTS radical stock solutions were added to different eppendorf tubes. To it were added 100 μl of various concentrations of drug solution.
Measurement of Absorbance (O.D): • The absorbance of control and test samples was recorded immediately at 730 nm taking PBS as blank.
Calculation: • The percent antioxidant activity was calculated according to the formula: % Antioxidant activity=100−[O.D of test sample/O.D of control×100]

[8] = system: Maillard reaction in-vitro (BSA, ribose); assay: Test for AGE inhibiting activity (Maillard reaction in-vitro, BSA + ribose, fluorescence); assay type: biochemical, bovine; settings: 37° C., 7 days
Protocol: The following method was used to determine the inhibitory effect of the test compounds on Maillard reaction in-vitro. This method is adopted from U.S. Pat. No. 5,514,676 and European Patent No. 0 339 496 A2.
A solution of Bovine Serum Albumin (BSA), ribose and test compound was prepared in Phosphate Buffer Saline (PBS, pH 7.4) so as to have final concentration of BSA and ribose at 10 mg/ml and 500 mM respectively. Addition of compound was done in aseptic conditions. Sodium azide (0.02%) was also added in this solution in order to prevent microbial growth. A separate tube containing BSA, ribose and sodium azide in the same concentration and buffer as above, but without any test compound, was also incubated as positive control. After incubation at 37° C. for 7 days, 40 micro liter sample from each tube was removed and diluted with PBS to have final concentration of BSA at 1 mg/ml. The fluorescence of all the samples was measured at Excitation Maximum of […] and the Emission Maximum of […] using f-MAX Fluorimeter (Molecular Device, USA). In order to study the effect of test compound on fluorescence, freshly prepared compound solution was mixed with previously incubated positive control (i.e. BSA+ribose), so as to achieve same concentration of all the components as that of test samples.
The percent inhibition of test compound was measured as follows:
[formula] Where F3=Fluorescence of BSA+ribose+compound, F4 is fluorescence of incubated (BSA+ribose)+freshly added test compound.

[9] = diabetes induced (Wolffenbuttel 1998); cited from earlier work

T1 sequence (P02769 25-607): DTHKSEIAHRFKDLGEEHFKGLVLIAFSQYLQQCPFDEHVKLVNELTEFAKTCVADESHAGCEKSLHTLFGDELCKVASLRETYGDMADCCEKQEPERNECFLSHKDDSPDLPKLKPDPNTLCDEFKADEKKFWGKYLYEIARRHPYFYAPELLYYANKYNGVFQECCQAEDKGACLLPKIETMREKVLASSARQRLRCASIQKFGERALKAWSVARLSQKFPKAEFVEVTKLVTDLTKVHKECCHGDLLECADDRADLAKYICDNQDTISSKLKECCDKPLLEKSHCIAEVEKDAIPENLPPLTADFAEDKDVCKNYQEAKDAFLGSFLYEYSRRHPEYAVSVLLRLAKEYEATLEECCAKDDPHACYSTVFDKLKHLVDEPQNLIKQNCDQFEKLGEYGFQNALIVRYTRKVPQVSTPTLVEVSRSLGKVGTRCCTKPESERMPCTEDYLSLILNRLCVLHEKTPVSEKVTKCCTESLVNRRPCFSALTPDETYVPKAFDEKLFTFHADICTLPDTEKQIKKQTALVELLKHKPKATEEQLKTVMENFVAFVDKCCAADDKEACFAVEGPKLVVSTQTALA

Structure (SMILES): O=C(C[n+]1ccsc1)c1ccccc1.[Br-] [N-phenacyl thiazolium bromide]
cleavage of AGE derived protein cross links [1]: cleaves covalent, AGE derived protein cross links

Structure (SMILES): N=C(N)NN [aminoguanidine]
progression of diabetic retinopathy [2]: retard progression of diabetic retinopathy
nerve conduction velocity [3]: improve nerve conduction velocity
development of diabetic nephropathy ([4]; Yamauchi (1997)): inhibits development of diabetic nephropathy
thickening of glomerular basement membrane ([4]; diabetic rats (Ellis 1991)): ameliorate thickening of glomerular basement membrane
rise in albuminuria ([4]; experimental diabetic rats (Soulis-Liparota, 1991)): attenuate the rise in albuminuria
tissue damage [5]: significantly prevent tissue damage

% Breakage [6]: 91.22%
Structure (SMILES): O=C(C[n+]1cccc(-c2cc(Cc3ccccc3)nn2-c2ccccc2)c1)c1ccccc1.[Cl-] [Compound 19, 1-(2-Phenyl-2-oxoethyl)-3-[(1-phenyl-3-phenylmethyl)pyrazol-5-yl]pyridinium chloride]
Relative Free Radical Scavenging Activity (%) on ABTS ([7]; 12.5 μM): 8.37%
Relative Free Radical Scavenging Activity (%) on ABTS ([7]; 25.0 μM): 19.42%
Relative Free Radical Scavenging Activity (%) on ABTS ([7]; 50.0 μM): 37.62%
Relative Free Radical Scavenging Activity (%) on ABTS ([7]; 100.0 μM): 55.18%
% Inhibition (Day 7) ([8]; 5 mM compound): 64.23%

Structure (SMILES): Cc1cc(C)n(Cc2cc(-c3ccc[n+](CC(=O)c4ccccc4)c3)n(-c3ccccc3)n2)n1.[Br-] [Compound 26]
% Breakage [6]: 42.37%
Relative Free Radical Scavenging Activity (%) on ABTS ([7]; 12.5 μM): 21.18%
Relative Free Radical Scavenging Activity (%) on ABTS ([7]; 25.0 μM): 34.22%
Relative Free Radical Scavenging Activity (%) on ABTS ([7]; 50.0 μM): 41.66%
Relative Free Radical Scavenging Activity (%) on ABTS ([7]; 100.0 μM): 75.27%
% Inhibition (Day 7) ([8]; 5 mM compound): 61.45%

% Breakage [6]: 52.27%
Structure (SMILES): Cc1cc(C)n(Cc2cc(-c3ccc[n+](CC(=O)c4ccccc4)c3)[nH]n2)n1.[Cl-] [Compound 17, 1-(2-Phenyl-2-oxoethyl)-3-[(3-(3,5-dimethylpyrazol-1-yl)methyl)pyrazol-5-yl]-pyridinium chloride]
Relative Free Radical Scavenging Activity (%) on ABTS ([7]; 12.5 μM): 28.34%
Relative Free Radical Scavenging Activity (%) on ABTS ([7]; 25.0 μM): 54.43%
Relative Free Radical Scavenging Activity (%) on ABTS ([7]; 50.0 μM): 83.56%
Relative Free Radical Scavenging Activity (%) on ABTS ([7]; 100.0 μM): 94.81%
% Inhibition (Day 7) ([8]; 2.5 mM compound): 57.43%

% Breakage [6]: 81.05%
Structure (SMILES): Cc1cc(C)n(Cc2cc(-c3ccc[n+](CC(=O)c4cccs4)c3)n(-c3ccccc3)n2)n1.[Cl-] [Compound 13]
Relative Free Radical Scavenging Activity (%) on ABTS ([7]; 12.5 μM): 23.58%
Relative Free Radical Scavenging Activity (%) on ABTS ([7]; 25.0 μM): 41.78%
Relative Free Radical Scavenging Activity (%) on ABTS ([7]; 50.0 μM): 64.01%
Relative Free Radical Scavenging Activity (%) on ABTS ([7]; 100.0 μM): 82.54%
% Inhibition (Day 7) ([8]; 10 mM compound): 57%

Structure (SMILES): Cc1sc[n+](CC(=O)c2ccccc2)c1C.[Cl-] [ALT-711]
arterial stiffness and arterial compliance [9]: reverse diabetes induced increase of arterial stiffness and improve arterial compliance

Structure (SMILES): O=C(C[n+]1cccc(-c2cc(COc3ccccc3)n[nH]2)c1)c1cccs1.[Cl-] [Compound 24, 1-(2-Thien-2′-yl-2-oxoethyl)-3-[(3-phenoxymethyl)pyrazol-5-yl]pyridinium chloride]
% Breakage [6]: 97.72%
Relative Free Radical Scavenging Activity (%) on ABTS ([7]; 12.5 μM): 43.66%
Relative Free Radical Scavenging Activity (%) on ABTS ([7]; 25.0 μM): 74.64%
Relative Free Radical Scavenging Activity (%) on ABTS ([7]; 50.0 μM): 83.24%
Relative Free Radical Scavenging Activity (%) on ABTS ([7]; 100.0 μM): 90.12%
% Inhibition (Day 7) ([8]; 5 mM compound): 82.5%
